Reference: patent US11225462B2, “Crystal forms of oxypyridine amide derivative and preparation method therefor” (JIANGSU HENGRUI MEDICINE CO., LTD., priority 2018, dated 2022)

How the values were obtained:
Type in all cases: physicochemical
[1] = DVS (dynamic vapor sorption) hygroscopicity characterization; conditions: for mass increase under normal conditions: 25° C. and 60% RH; for hygroscopicity according to guidelines for drug hygroscopicity test in China Pharmacopoeia (2015 edition) / mass increase as the humidity increases: 25° C., 10% RH to 80% RH; for mass increase under accelerated test conditions: 70% RH; for mass increase under extreme conditions: 90% RH; for desorption process and adsorption process of the sample: humidity change from 0% to 95%
Experimental: DVS refers to dynamic vapor sorption and is determined using SMS DVS Advantage at 25° C., with the humidity change of 50%-95%-0%-95%-50% and the stepping of 10% (5% for the last step) (the specific humidity range is determined in accordance with the corresponding plot, and the methods listed herein are those most commonly used), and the standard for determination is as follow: dm/dt is not more than 0.02%, and Tmax is not more than 360 min.

[2] = Influencing factor experiments (light, high temperature, high humidity, 30 days)
Experimental: Crystal forms A, B, D and F of the compound of formula (I) were spread and left open to the air, and under conditions of high temperature (40° C. and 60° C.), light (4500 Lux), high humidity (RH 75% and RH 90%), the stability thereof were investigated for a period of 30 days.

[3] = Long-term and accelerated stability experiments (3 months)
Experimental: The long-term (25° C., 60% RH) and accelerated (40° C., 75% RH) stability of crystal form A and crystal form F of the compound of formula (I) were investigated for 3 months.

CCC(=O)c1ccc(Cl)cc1-c1cc(=O)n([C@@H](CCOC(C)(C)C)C(=O)Nc2ccc(C(=O)O)cc2)cc1OC [Crystal form B, (S)-4-(4-(tert-butoxy)-2-(4-(5-chloro-2-propionylphenyl)-5-methoxy-2-oxopyridin-1(2H)-yl)butanamido)benzoic acid]
mass increase under normal conditions [1]: about 1.155% | hygroscopicity according to guidelines for drug hygroscopicity test in China Pharmacopoeia (2015 edition) [1]: slightly hygroscopic (less than 2% but not less than 0.2%) | mass increase as the humidity increases [1]: about 1.968% | mass increase under accelerated test conditions [1]: about 1.530% | mass increase under extreme conditions [1]: about 3.963% | crystal form before and after DVS detection (XRPD comparison) [1]: change to crystal form A | desorption process and adsorption process of the sample [1]: basically coincide | % Purity ([2]; 40° C., 15 days): 98.99% | Color and trait ([2]; 40° C., 15 days): Light yellow | % Purity ([2]; 40° C., 30 days): 98.57% | Color and trait ([2]; 40° C., 30 days): Light yellow | % Purity ([2]; 60° C., 15 days): 99.10% | Color and trait ([2]; 60° C., 15 days): Light yellow | % Purity ([2]; 60° C., 30 days): 98.60% | Color and trait ([2]; 60° C., 30 days): Light yellow | % Purity ([2]; 4500 Lux, 15 days): 99.01% | Color and trait ([2]; 4500 Lux, 15 days): Yellow solid | % Purity ([2]; 4500 Lux, 30 days): 98.71% | Color and trait ([2]; 4500 Lux, 30 days): Yellow solid | % Purity ([2]; Initial condition, day 0): 99.65% | Color and trait ([2]; Initial condition, day 0): Light yellow | % Purity ([2]; RH 75%, 15 days): 99.62% | % Weight gain ([2]; RH 75%, 15 days): 6.76% | Color and trait ([2]; RH 75%, 15 days): Light yellow | % Purity ([2]; RH 75%, 30 days): 99.59% | % Weight gain ([2]; RH 75%, 30 days): 8.34% | Color and trait ([2]; RH 75%, 30 days): Light yellow | % Purity ([2]; RH 90%, 15 days): 99.64% | % Weight gain ([2]; RH 90%, 15 days): 14.89% | Color and trait ([2]; RH 90%, 15 days): Light yellow | % Purity ([2]; RH 90%, 30 days): 99.56% | % Weight gain ([2]; RH 90%, 30 days): 19.11% | Color and trait ([2]; RH 90%, 30 days): Light yellow

CCC(=O)c1ccc(Cl)cc1-c1cc(=O)n([C@@H](CCOC(C)(C)C)C(=O)Nc2ccc(C(=O)O)cc2)cc1OC [Crystal form F, (S)-4-(4-(tert-butoxy)-2-(4-(5-chloro-2-propionylphenyl)-5-methoxy-2-oxopyridin-1(2H)-yl)butanamido)benzoic acid]
mass increase under normal conditions [1]: about 0.0457% | hygroscopicity according to guidelines for drug hygroscopicity test in China Pharmacopoeia (2015 edition) [1]: hardly hygroscopic (less than 2%) | mass increase as the humidity increases [1]: about 0.1464% | mass increase under accelerated test conditions [1]: about 0.0701% | mass increase under extreme conditions [1]: about 0.2744% | crystal form before and after DVS detection (XRPD comparison) [1]: unchanged | desorption process and adsorption process of the sample [1]: basically coincide | % Purity ([2]; 40° C., 5 days): 99.67% | % Purity ([2]; 40° C., 10 days): 99.62% | % Purity ([2]; 40° C., 30 days): 99.57% | % Purity ([2]; 60° C., 5 days): 99.68% | % Purity ([2]; 60° C., 10 days): 99.65% | % Purity ([2]; 60° C., 30 days): 99.59% | % Purity ([2]; 4500 Lux, 5 days): 99.66% | % Purity ([2]; 4500 Lux, 10 days): 99.64% | % Purity ([2]; 4500 Lux, 30 days): 99.64% | % Purity ([2]; Initial condition, day 0): 99.67% | % Purity ([2]; RH 75%, 5 days): 99.65% | % Weight gain ([2]; RH 75%, 5 days): 5.23% | % Purity ([2]; RH 75%, 10 days): 99.63% | % Weight gain ([2]; RH 75%, 10 days): 5.34% | % Purity ([2]; RH 75%, 30 days): 99.62% | % Weight gain ([2]; RH 75%, 30 days): 10.03% | % Purity ([2]; RH 90%, 5 days): 99.66% | % Weight gain ([2]; RH 90%, 5 days): 7.26% | % Purity ([2]; RH 90%, 10 days): 99.63% | % Weight gain ([2]; RH 90%, 10 days): 8.40% | % Purity ([2]; RH 90%, 30 days): 99.65% | % Weight gain ([2]; RH 90%, 30 days): 12.83% | physical and chemical stability (conclusion) ([2]; light, 40° C., 60° C., 75% RH or 90% RH for 30 days): good physical and chemical stability | % Purity 1 month ([3]; 25° C., 60% RH): 99.68% | % Purity 2 months ([3]; 25° C., 60% RH): 99.65% | % Purity 3 months ([3]; 25° C., 60% RH): 99.65% | % Purity Initial condition ([3]; 25° C., 60% RH): 99.69% | % Purity 1 month ([3]; 40° C., 75% RH): 99.68% | % Purity 2 months ([3]; 40° C., 75% RH): 99.67% | % Purity 3 months ([3]; 40° C., 75% RH): 99.66% | % Purity Initial condition ([3]; 40° C., 75% RH): 99.69% | physical and chemical stability (conclusion) ([3]; long-term (25° C., 60% RH) and accelerated (40° C., 75% RH) conditions for 3 months): good physical and chemical stability
